Results from publication PMC7884259 (Journal of medicinal chemistry, 2020).
Changes are numbered by the printed parent chain. Where two headings read alike, the source gives them in different places. Where no end group is shown, it is not given here.

What was measured:
ATAD2 bromodomain [1] = conditions: cited from earlier work
[2] = target: T1, ATAD2Bshort bromodomain (lacks residues 988–992, VDIEE) (Homo sapiens, UniProt Q9ULI0, DEL988-992); assay: ITC binding to the ATAD2Bshort splice variant bromodomain; conditions: ITC at 5 °C, 20 mM NaH2PO4 pH 7.0, 150 mM NaCl; no binding in duplicate
T1 sequence (Q9ULI0 953-1080 isoform Q9ULI0-2): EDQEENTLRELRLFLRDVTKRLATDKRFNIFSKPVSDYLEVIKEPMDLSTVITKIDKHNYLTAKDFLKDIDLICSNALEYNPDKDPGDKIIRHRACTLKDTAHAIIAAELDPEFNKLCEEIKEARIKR

[3] = target: T2, ATAD2B bromodomain Y1037A (Homo sapiens, UniProt Q9ULI0, Y1037A); assay: ITC binding to the ATAD2B bromodomain mutant Y1037A; conditions: ITC at 5 °C, 20 mM NaH2PO4 pH 7.0, 150 mM NaCl; no binding in duplicate
T2 sequence (Q9ULI0 953-1085 Y1037A): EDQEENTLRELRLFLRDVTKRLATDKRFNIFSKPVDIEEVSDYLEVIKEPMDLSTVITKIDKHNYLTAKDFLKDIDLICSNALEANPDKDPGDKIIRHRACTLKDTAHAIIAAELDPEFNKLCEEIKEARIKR

ATAD2B bromodomain Y995A = target: T3, ATAD2B bromodomain Y995A (Homo sapiens, UniProt Q9ULI0, Y995A); assay: ITC binding to the ATAD2B bromodomain mutant Y995A; conditions: ITC at 5 °C, 20 mM NaH2PO4 pH 7.0, 150 mM NaCl; no binding in duplicate
T3 sequence (Q9ULI0 953-1085 Y995A): T2 sequence (Q9ULI0 953-1085 Y1037A) with Y43A, A85Y

ATAD2B bromodomain = target: T4, ATAD2B bromodomain (Homo sapiens, UniProt Q9ULI0); assay: ITC binding to the wild-type ATAD2B bromodomain
T4 sequence (Q9ULI0 953-1085): T2 sequence (Q9ULI0 953-1085 Y1037A) with A85Y

ATAD2 bromodomain [4] = conditions: time-resolved fluorescence energy transfer; cited from earlier work

Row | Compound | Dissociation constant, ATAD2Bshort bromodomain [2] | Dissociation constant, Y1037A ATAD2B bromodomain [3] | Dissociation constant, Y995A ATAD2B bromodomain (ATAD2B bromodomain Y995A) | further results
1 | 8-(((3R,4R)-3-((1,1-dioxidotetrahydro-2H-thiopyran-4-yl)-methoxy)-piperidin-4-yl)amino)-3-methyl-5-(5-methylpyridin-3-yl)-1,7-naphthyridin-2(1H)-one [compound 38, reference compound] | no binding | – | – | Kd (ATAD2 bromodomain [1]; read-out: ATAD2 reported KDs (binding affinity)): 0.09 µM
2 | GKGGKGLGKGGAKRHRK [H4 unmodified (res 4–17)] | no binding | no binding | no binding | –
3 | LGK(Ac)GGAK(Ac)RHRK-NH2 [H4K12acK16ac (res 10–20)] | – | – | – | Kd (ATAD2B bromodomain): 214 ± 7 µM
4 | H4K5acK8acK12acK16ac (1–25): tetra-acetylated histone H4 residues 1–25 peptide of the cited TR-FRET assay | – | – | – | recognition by the ATAD2 bromodomain in TR-FRET (ATAD2 bromodomain [4]): recognizes
5 | SGRGKGGK(Ac)GL-NH2 [H4K8ac (res 1–10)] | – | – | – | ATAD2 reported KDs (no KD available, interaction only) (ATAD2 bromodomain [1]; qualitative): NA, interaction shown[16]
6 | SGRGK(Ac)QGGKARA-NH2 [H2AK5ac (res 1–12)] | no binding | no binding | no binding | –
7 | H4K5acK12ac (1–25): diacetylated histone H4 residues 1–25 peptide of the cited TR-FRET assay | – | – | – | recognition by the ATAD2 bromodomain in TR-FRET (ATAD2 bromodomain [4]): recognizes
8 | RKSTGG(Kac)APRKQ [H3K14ac (res 8–19)] | – | – | – | ATAD2 reported KDs (ATAD2 bromodomain [1]; result is for the H3K14ac res 1–21 peptide): no binding (res 1–21)[14]
9 | SGRGK(Ac)GGKGL-NH2 [H4K5ac (res 1–10)] | no binding | no binding | no binding | Kd (ATAD2 bromodomain [1]; read-out: ATAD2 reported KDs, value is for the H4K5ac res 1–20 peptide): 22 µM
10 | CC(=O)NCCCC[C@H](NC(=O)CNC(=O)[C@H](CC(C)C)NC(=O)CNC(=O)[C@H](CCCCN)NC(=O)CNC(=O)CNC(=O)[C@H](CCCCN)NC(=O)CN)C(=O)NCC(=O)NCC(=O)N[C@@H](C)C(=O)N[C@@H](CCCCN)C(=O)N[C@@H](CCCNC(=N)N)C(N)=O [H4K12ac (res 4–17)] | no binding | no binding | no binding | Kd (ATAD2 bromodomain [1]; read-out: ATAD2 reported KDs, value is for the H4K12ac res 1–25 peptide): 2.5 µM; Kd (ATAD2B bromodomain): 50.5 ± 5.8 µM
11 | SGRGK(Ac)GGK(Ac)GL-NH2 [H4K5acK8ac (res 1–10)] | no binding | no binding | no binding | –
